Experiments:
CBL-B (residues 36-427) = target: T1, CBL-B (residues 36-427) (Homo sapiens, UniProt Q13191); assay: Ligand Displacement Assay (LDA), HTRF competitive binding against BODIPY-labeled fluorescent tracer, CBL-B; settings: geometric mean of the number of tests, read-out: CBL-B Ki (nM) GMean
T1 construct: Purified CBL-B (residues 36-427) and C-CBL (residues 46-435) proteins from baculovirus-infected insect cells; made in house; host or cells: baculovirus-infected insect cells
Description: (§1) Ligand Displacement Assay (LDA)
(§2) The purpose of the homogeneous time-resolved fluorescence energy transfer (HTRF) ligand displacement assay is to determine whether the compounds of the disclosure are competitive with a BODIPY-labeled compound; “fluorescent tracer” aka [6-cyclopropyl-5-(17-{5-[(3,5-dimethyl-2H-pyrrol-2-ylidene-KN)methyl]-1H-pyrrol-2-yl-κN}-15-oxo-5,8,11-trioxa-2,14-diazaheptadecan-1-yl)-N-(3-{3-[(4-methyl-4H-1,2,4-triazol-3-yl)methyl]oxetan-3-yl}phenyl)pyridine-2-carboxamidato](difluorido)boron and to assess CBL-B binding selectivity over C-CBL. The synthesis of this fluorescent tracer compound is described below.
(§3) Purified CBL-B (residues 36-427) and C-CBL (residues 46-435) proteins from baculovirus-infected insect cells were biotin labeled on their amino-terminal AviTag™ epitopes by the E. coli biotin ligase BirA to bind terbium-labeled streptavidin (SA-Tb). After optimizing the assays and determining KD values for the fluorescent tracer to CBL-B and C-CBL, compounds were tested using three-fold serial dilutions in duplicate from a top concentration of […] with a final DMSO concentration of 2%. […] The Ki (nM) values reported are the geometric means (GMean) of the number of tests conducted.

C-CBL (residues 46-435) = target: T2, C-CBL (residues 46-435) (Homo sapiens, UniProt P22681); assay: Ligand Displacement Assay (LDA), HTRF competitive binding against BODIPY-labeled fluorescent tracer, C-CBL; settings: geometric mean of the number of tests, read-out: C-CBL Ki (nM) GMean
T2 construct: Purified CBL-B (residues 36-427) and C-CBL (residues 46-435) proteins from baculovirus-infected insect cells; made in house; host or cells: baculovirus-infected insect cells
T2 sequence (P22681 46-435): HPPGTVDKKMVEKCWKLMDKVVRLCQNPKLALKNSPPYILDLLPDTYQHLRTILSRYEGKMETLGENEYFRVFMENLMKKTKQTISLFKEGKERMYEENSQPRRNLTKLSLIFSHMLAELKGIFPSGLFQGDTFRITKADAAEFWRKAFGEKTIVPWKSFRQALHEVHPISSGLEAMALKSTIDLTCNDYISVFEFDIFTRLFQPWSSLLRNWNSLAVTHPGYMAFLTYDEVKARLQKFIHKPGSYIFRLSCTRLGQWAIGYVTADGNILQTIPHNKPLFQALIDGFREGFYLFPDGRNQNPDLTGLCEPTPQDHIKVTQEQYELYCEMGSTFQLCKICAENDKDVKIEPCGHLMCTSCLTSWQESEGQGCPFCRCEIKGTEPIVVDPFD
Description: as §1, §2, §3

For `CC[C@@H](c1cccc(-c2n[nH]c3c([C@@H](C)NC[C@H](C)O)nc(C(F)(F)F)cc23)c1)c1nncn1C` (single isomer, unassigned) [Example D79], the Ki (CBL-B (residues 36-427)) was 296 nM and the Ki (C-CBL (residues 46-435)) was 1160 nM.

Compound `Cn1cnnc1[C@@H](c1cccc(-c2n[nH]c3c(CN[C@H]4CC[C@H]4O)nc(C(F)(F)F)cc23)c1)C1CCC1` (single isomer, unassigned) [Example D92] has a Ki (CBL-B (residues 36-427)) of 4.5 nM and a Ki (C-CBL (residues 46-435)) of 36.1 nM.

Work on `Cn1cnnc1[C@@H](c1cccc(-c2n[nH]c3ncc(Cl)cc23)c1)C1CCC1` [Example A4, 5-chloro-3-{3-[(R)-cyclobutyl(4-methyl-4H-1,2,4-triazol-3-yl)methyl]phenyl}-1H-pyrazolo[3,4-b]pyridine] yielded a Ki (CBL-B (residues 36-427)) of 17.9 nM and a Ki (C-CBL (residues 46-435)) of 279 nM.

`CC(=O)NC(C)c1nc(C(F)(F)F)cc2c(-c3cccc(C4(Cc5nncn5C)COC4)c3)n[nH]c12` (single isomer, unassigned) [Example M6, N-{(1ξ)-1-[3-(3-{3-[(4-methyl-4H-1,2,4-triazol-3-yl)methyl]oxetan-3-yl}phenyl)-5-(trifluoromethyl)-1H-pyrazolo[3,4-c]pyridin-7-yl]ethyl}acetamide] was tested, and the Ki (CBL-B (residues 36-427)) was 19.5 nM and the Ki (C-CBL (residues 46-435)) was 68.6 nM.

`CN1CCC[C@@H]1COc1nc(C(F)(F)F)cc2c(-c3cccc(C4(Cc5nncn5C)COC4)c3)n[nH]c12` [Example J6, 7-{[(2R)-1-methylpyrrolidin-2-yl]methoxy}-3-(3-{3-[(4-methyl-4H-1,2,4-triazol-3-yl)methyl]oxetan-3-yl}phenyl)-5-(trifluoromethyl)-1H-pyrazolo[3,4-c]pyridine] was tested, and the Ki (CBL-B (residues 36-427)) was 48.9 nM and the Ki (C-CBL (residues 46-435)) was 196 nM.

Work on `CC(O)c1nc(C2CC2)cc2c(-c3cccc(C4(Cc5nncn5C)COC4)c3)n[nH]c12` (single isomer, unassigned) [Example H6, (1ξ)-1-[5-cyclopropyl-3-(3-{3-[(4-methyl-4H-1,2,4-triazol-3-yl)methyl]oxetan-3-yl}phenyl)-1H-pyrazolo[3,4-c]pyridin-7-yl]ethan-1-ol] yielded a Ki (CBL-B (residues 36-427)) of 35.6 nM and a Ki (C-CBL (residues 46-435)) of 142 nM.

`CC(N[C@H](C)[C@H](C)O)c1nc(C(F)(F)F)cc2c(-c3cccc([C@H](c4nncn4C)C4CCC4)c3)n[nH]c12` (single isomer, unassigned) [Example C116] gave a Ki (CBL-B (residues 36-427)) of 18.2 nM and a Ki (C-CBL (residues 46-435)) of 204 nM.

For `CC(=O)NC(C)c1nc(C(F)(F)F)cc2c(-c3cccc([C@H](c4nncn4C)C4CCC4)c3)n[nH]c12` (single isomer, unassigned) [Example M2], the Ki (CBL-B (residues 36-427)) was 30.9 nM and the Ki (C-CBL (residues 46-435)) was 225 nM.

`C[C@@H](N[C@H]1COC[C@@H]1O)c1nc(C(F)(F)F)cc2c(-c3cccc([C@H](c4nncn4C)C4CCC4)c3)n[nH]c12` (single isomer, unassigned) [Example D62] was tested, and the Ki (CBL-B (residues 36-427)) was 4.3 nM and the Ki (C-CBL (residues 46-435)) was 39.8 nM.

Compound `C[C@H](NC(=O)OC(C)(C)C)c1nc(C(F)(F)F)cc2c(-c3cccc(C4(Cc5nncn5C)COC4)c3)n[nH]c12` [Example K8] has a Ki (CBL-B (residues 36-427)) of 33.4 nM and a Ki (C-CBL (residues 46-435)) of 133 nM.

`CC(O)c1nc(C2CC2)cc2c(-c3cccc(C4(Cc5nncn5C)COC4)c3)n[nH]c12` (single isomer, unassigned) [Example H5, (1ξ)-1-[5-cyclopropyl-3-(3-{3-[(4-methyl-4H-1,2,4-triazol-3-yl)methyl]oxetan-3-yl}phenyl)-1H-pyrazolo[3,4-c]pyridin-7-yl]ethan-1-ol] gave a Ki (CBL-B (residues 36-427)) of 28.5 nM and a Ki (C-CBL (residues 46-435)) of 93.6 nM.

With `Cn1cnnc1CC1(c2cccc(-c3n[nH]c4ccc(F)cc34)c2)COC1` [Example B6, 5-fluoro-3-(3-{3-[(4-methyl-4H-1,2,4-triazol-3-yl)methyl]oxetan-3-yl}phenyl)-1H-indazole] the Ki (CBL-B (residues 36-427)) was 71.8 nM and the Ki (C-CBL (residues 46-435)) was 437 nM.

In the case of `C[C@H](N[C@H]1COC[C@H]1O)c1nc(C(F)(F)F)cc2c(-c3cccc([C@H](c4nncn4C)C4CCC4)c3)n[nH]c12` (single isomer, unassigned) [Example D57], the Ki (CBL-B (residues 36-427)) is reported as 5.2 nM and the Ki (C-CBL (residues 46-435)) is reported as 46.7 nM.

In the case of `Cn1cnnc1[C@@H](c1cccc(-c2n[nH]c3ncc(C(F)(F)F)cc23)c1)C1CCC1` [Example A5, 3-{3-[(R)-cyclobutyl(4-methyl-4H-1,2,4-triazol-3-yl)methyl]phenyl}-5-(trifluoromethyl)-1H-pyrazolo[3,4-b]pyridine], the Ki (CBL-B (residues 36-427)) is reported as 89.1 nM and the Ki (C-CBL (residues 46-435)) is reported as 1060 nM.

Compound `Cn1cnnc1CC1(c2cccc(-c3n[nH]c4c(OC5CCCC5)nc(C(F)(F)F)cc34)c2)COC1` [Example J7, 7-(cyclopentyloxy)-3-(3-{3-[(4-methyl-4H-1,2,4-triazol-3-yl)methyl]oxetan-3-yl}phenyl)-5-(trifluoromethyl)-1H-pyrazolo[3,4-c]pyridine] has a Ki (CBL-B (residues 36-427)) of 92 nM and a Ki (C-CBL (residues 46-435)) of 420 nM.

`Cn1cnnc1[C@@H](c1cccc(-c2n[nH]c3c(C4CCCN4)nc(C(F)(F)F)cc23)c1)C1CCC1` (single isomer, unassigned) [Example L3] showed a Ki (CBL-B (residues 36-427)) of 20.1 nM and a Ki (C-CBL (residues 46-435)) of 159 nM.

In the case of `Cn1cnnc1CC1(c2cccc(-c3n[nH]c4cnc(C(F)(F)F)nc34)c2)COC1` [Example B2, 3-(3-{3-[(4-methyl-4H-1,2,4-triazol-3-yl)methyl]oxetan-3-yl}phenyl)-5-(trifluoromethyl)-1H-pyrazolo[4,3-d]pyrimidine], the Ki (CBL-B (residues 36-427)) is reported as 398 nM and the Ki (C-CBL (residues 46-435)) is reported as 2400 nM.

`C[C@H](N)c1nc(C(F)(F)F)cc2c(-c3cccc([C@H](c4nncn4C)C4CCCCC4)c3)n[nH]c12` [Example K2, (1S)-1-[3-{3-[(R)-cyclohexyl(4-methyl-4H-1,2,4-triazol-3-yl)methyl]phenyl}-5-(trifluoromethyl)-1H-pyrazolo[3,4-c]pyridin-7-yl]ethan-1-amine] gave a Ki (CBL-B (residues 36-427)) of 48.6 nM and a Ki (C-CBL (residues 46-435)) of 287 nM.

With `C[C@@H](N)c1nc(C(F)(F)F)cc2c(-c3cccc([C@H](c4nncn4C)C4CCCCC4)c3)n[nH]c12` [Example K1, (1R)-1-[3-{3-[(R)-cyclohexyl(4-methyl-4H-1,2,4-triazol-3-yl)methyl]phenyl}-5-(trifluoromethyl)-1H-pyrazolo[3,4-c]pyridin-7-yl]ethan-1-amine] the Ki (CBL-B (residues 36-427)) was 36 nM and the Ki (C-CBL (residues 46-435)) was 289 nM.

Compound `CC(N[C@H]1CCC[C@@H]1O)c1nc(C(F)(F)F)cc2c(-c3cccc([C@H](c4nncn4C)C4CCCCC4)c3)n[nH]c12` (single isomer, unassigned) [Example C102] has a Ki (CBL-B (residues 36-427)) of 10.7 nM and a Ki (C-CBL (residues 46-435)) of 113 nM.

Compound `CC(NC(=O)[C@@H](C)O)c1nc(C(F)(F)F)cc2c(-c3cccc([C@H](c4nncn4C)C4CCC4)c3)n[nH]c12` (single isomer, unassigned) [Example I6] has a Ki (CBL-B (residues 36-427)) of 7.8 nM and a Ki (C-CBL (residues 46-435)) of 84.3 nM.

Work on `C[C@@H](N[C@@H]1COC[C@H]1O)c1nc(C(F)(F)F)cc2c(-c3cccc([C@H](c4nncn4C)C4CCC4)c3)n[nH]c12` (single isomer, unassigned) [Example D60] yielded a Ki (CBL-B (residues 36-427)) of 12.3 nM and a Ki (C-CBL (residues 46-435)) of 82.3 nM.

`CC[C@@H](c1cccc(-c2n[nH]c3c([C@H](C)NC[C@H](C)O)nc(C(F)(F)F)cc23)c1)c1nncn1C` (single isomer, unassigned) [Example D78] gave a Ki (CBL-B (residues 36-427)) of 71.2 nM and a Ki (C-CBL (residues 46-435)) of 271 nM.

`CN(C)c1nc2[nH]nc(-c3cccc([C@H](c4nncn4C)C4CCC4)c3)c2cc1C(F)(F)F` [Example E1, 3-{3-[(R)-cyclobutyl(4-methyl-4H-1,2,4-triazol-3-yl)methyl]phenyl}-N,N-dimethyl-5-(trifluoromethyl)-1H-pyrazolo[3,4-b]pyridin-6-amine] was tested, and the Ki (CBL-B (residues 36-427)) was 268 nM and the Ki (C-CBL (residues 46-435)) was 2320 nM.

With `Cn1cnnc1CC1(c2cccc(-c3n[nH]c4cc(F)c(F)cc34)c2)COC1` [Example B5, 5,6-difluoro-3-(3-{3-[(4-methyl-4H-1,2,4-triazol-3-yl)methyl]oxetan-3-yl}phenyl)-1H-indazole] the Ki (CBL-B (residues 36-427)) was 58.9 nM and the Ki (C-CBL (residues 46-435)) was 375 nM.

In the case of `CC(=O)NC(C)c1nc(C(F)(F)F)cc2c(-c3cccc(C4(Cc5nncn5C)COC4)c3)n[nH]c12` (single isomer, unassigned) [Example M1, N-{(1ξ)-1-[3-(3-{3-[(4-methyl-4H-1,2,4-triazol-3-yl)methyl]oxetan-3-yl}phenyl)-5-(trifluoromethyl)-1H-pyrazolo[3,4-c]pyridin-7-yl]ethyl}acetamide], the Ki (CBL-B (residues 36-427)) is reported as 26.3 nM and the Ki (C-CBL (residues 46-435)) is reported as 79.4 nM.

`Cn1cnnc1[C@@H](c1cccc(-c2n[nH]c3c(C4CCCN4)nc(C(F)(F)F)cc23)c1)C1CCC1` (single isomer, unassigned) [Example L4] gave a Ki (CBL-B (residues 36-427)) of 19.2 nM and a Ki (C-CBL (residues 46-435)) of 178 nM.

Compound `CC(=O)NC(C)c1nc(C(F)(F)F)cc2c(-c3cccc([C@H](c4nncn4C)C4CCC4)c3)n[nH]c12` (stereo partly shown) [Example M3] has a Ki (CBL-B (residues 36-427)) of 29 nM and a Ki (C-CBL (residues 46-435)) of 214 nM.

With `Cn1cnnc1[C@@H](c1cccc(-c2n[nH]c3c(CN[C@@H]4CC[C@@H]4O)nc(C(F)(F)F)cc23)c1)C1CCC1` (single isomer, unassigned) [Example D93] the Ki (CBL-B (residues 36-427)) was 0.8 nM and the Ki (C-CBL (residues 46-435)) was 2.4 nM.
